The test system of assay [1] is Candida spp. The experiment in a line: Disk diffusion method, 18 Candida spp. strains (distribution). Format: cell-based. Particulars: for inhibition rings diameter, average (including 6.0 mm of the disk) / inhibition rings diameter, range (including 6.0 mm of the disk) / % inhibited strains: 18 strains; for inhibition rings diameter, average (including 6.0 mm of the disk) / inhibition rings diameter, range (including 6.0 mm of the disk): disk 10 μl oil or 10 μg amphotericin B, 35° C. 24 hours; for inhibition of the tested Candida strains (words) / inhibition rings compared with those caused by amphotericin B (10 μg): disks soaked with the oils separately; for % inhibited strains: ring equal or greater than that of amphotericin B. Here is the method:
(§1) A total of eighteen strains belonging to Candida spp. (15 C. albicans, 2 C. glabrata and 1 C. lusitaniae) derived from a collection of vaginal strains isolated in CHROMAgar Candida (BD Italia SpA, Milan, Italy) were grown on Potato Dextrose Agar (Oxoid Thermofisher SpA, Milan, Italy) at 35° C. for 24 hours.
(§2) Colonies were re-suspended in sterile saline at a density corresponding to #0.5 McFarland (opacity standard). #0.5 McF correspond to 1.4×10^6 colony forming units (CFU)/ml for C. albicans, 4.3×10^6 CFU/ml for C. glabrata and 3×10^6 CFU/ml for C. lusitaniae [Guinea J. et al., Rapid antifungal susceptibility determination for yeast isolates by use of Etest performed directly on blood samples from patients with fungemia, J Clin Microbiol. 2010 June, 48(6): 2205-12]. Then, the sensitivity test vs the two oils has been performed. The disk diffusion method was carried out as follows: for each tested strain, 4 plates of Potato Dextrose Agar (PDA) were seeded in 3 directions to produce a confluent growth, by sterile swab soaked in the cell suspension. Sorbent paper disks (Oxoid Thermofisher SpA, Milan, Italy) 6.0 mm diameter were placed on the agar surface and added with 10 μl of each essential oil. Disks soaked with 10 μg amphotericin B were used as positive control. Also disks of chlortrimazole (from 10 μg to 40 μg) were used, but the inhibition rings could not be clearly read due to the formation of a re-growth ring. Disks soaked with 10 μl pure dimethylsulphoxide (DMSO, Sigma-Aldrich, St. Louis, MO, USA) were used as negative control. The plates were incubated at 35° C. for 24 hours. All the experiments were carried out in duplicate. The inhibiting effect of the oils were considered to be effective when the inhibition ring was equal or greater than that caused by amphotericin B. For amphotericin B, an inhibition zone (IZ)≥15 mm was considered as “sensitivity”, from 10 to 14 mm as “intermediate sensitivity” and <10 mm as “resistance” [Kauser et al., Agreement of Direct Antifungal Susceptibility Testing from Positive Blood Culture Bottles with Conventional Method for Candida Species, J Clin Microbiol. 2016 February, 54(2):343-34].
On the technique in general: In agar diffusion tests the substance spreads into inoculated agar from a disc or well.

Assay [2] concerns C. glabrata. The experiment in a line: Disk diffusion method, C. glabrata strains. Format: cell-based. Here is the method: as §1, §2
Assay [3] relates to C. lusitaniae. The experiment in a line: Disk diffusion method, C. lusitaniae strain. The note with it: C. lusitaniae 1. Format: cell-based. The protocol:
as §1
Colonies were re-suspended in sterile saline at a density corresponding to #0.5 McFarland (opacity standard). #0.5 McF correspond to 1.4×10^6 colony forming units (CFU)/ml for C. albicans, 4.3×10^6 CFU/ml for C. glabrata and 3×10^6 CFU/ml for C. lusitaniae [Guinea J. et al., Rapid antifungal susceptibility determination for yeast isolates by use of Etest performed directly on blood samples from patients with fungemia, J Clin Microbiol. 2010 June, 48(6): 2205-12]. Then, the sensitivity test vs the two oils has been performed. The disk diffusion method was carried out as follows: for each tested strain, 4 plates of Potato Dextrose Agar (PDA) were seeded in 3 directions to produce a confluent growth, by sterile swab soaked in the cell suspension. Sorbent paper disks (Oxoid Thermofisher SpA, Milan, Italy) 6.0 mm diameter were placed on the agar surface and added with 10 μl of each essential oil. Disks soaked with 10 μg amphotericin B were used as positive control. Also disks of chlortrimazole (from 10 μg to 40 μg) were used, but the inhibition rings could not be clearly read due to the formation of a re-growth ring. Disks soaked with 10 μl pure dimethylsulphoxide (DMSO, Sigma-Aldrich, St. Louis, MO, USA) were used as negative control. The plates were incubated at 35° C. for 24 hours. All the experiments were carried out in duplicate. […]

Assay [4] concerns Candida spp. In words: Microdilution method MIC/MFC, 18 Candida spp. strains (distribution). In kind it is cell-based. The note with it: 18 strains. Here is the method: as §1
(§3) The antifungal activity of amphotericin B and of cinnamaldheyde and eugenol were tested with the microdilution method as reported by Bona et al. [Bona et al., Sensitivity of Candida albicans to essential oils: are they an alternative to antifungal agents? J Appl Microbiol. 2016 December, 121(6): 1530-1545] with small changes. All the 18 Candida spp strains were tested. For each isolated, the colonies deriving from cultures (24 hours) in PDA were diluted in saline up to a concentration of 2×10^3 CFU/ml (so obtaining a final concentration of 10 3CGU/ml). Cinnamaldehyde and eugenol were dissolved in DMSO (80% oil, 20% DMSO), then diluted in Sabouraud broth up to a concentration of 8% v/v (so obtaining a final concentration of 4% v/v). Then, in a 96-well microtiter plate ½ serial dilution of amphotericin B (range 32-0.032 μg/ml, for a final range of 16-0.016 μg/ml) and of the essential oils (range 8-0.004% v/v, for a final range of 4-0.002% v/v) were carried out. Each well was then injected with 100 μl of cell suspension. The negative control contained DMSO diluted in Sabouraud broth (at 2% v/v, for a final concentration of 1% v/v). […] Each experiment was carried out in duplicate. The Minimum Inhibitory Concentration (MIC) was determined as the concentration of the oils in the first well which is not cloudy. The Minimum Fungicidal Concentration (MFC) was determined as the lowest concentration of the oils, with the agar culture showing the complete absence of fungal growth. The determination of the amphotericin B MIC was carried out also according to the EUCAST guidelines (cutoff 1 μg/ml) [https://eucast.org/astoffungi/clinicalbreakpointsforantifungals], all the results being consistent.

In assay [5] the test system is C. glabrata. In words: Microdilution method MIC/MFC, C. glabrata strains. In kind it is cell-based. Here is the method:
as §1, §3
For orientation: Broth dilution looks for growth in wells or tubes with falling amounts of substance.

Assay [6] deals with C. lusitaniae. The experiment in a line: Microdilution method MIC/MFC, C. lusitaniae strain. In kind it is cell-based. Particulars: C. lusitaniae 1. Here is the method: as §1, §3
In assay [7] the test system is L. acidophilus strain La-14. In words: Disk diffusion vs L. acidophilus. Particulars: 10 μl oil per disk; MRS agar, 37° C. 24 hours, anaerobiosis. In kind it is cell-based, Lactobacillus acidophilus. The protocol:
The antibacterial activity of cinnamaldheyde and eugenol vs L. acidophilus was studied by using the disk diffusion method (reading scheme as reported in FIG. 1) and the microdilution method (reading scheme as reported in FIG. 2). A L. acidophilus strain named La-14 (Danisco SpA, Milan, Italy) was tested.
Colonies deriving from a 24-hour culture in DeManRogosaSharpe agar (MRS, OXOID SpA, Milan, Italy) were suspended in saline up to a concentration corresponding to #0.5 McFarland. A total of 3 plates of MRS agar were seeded in 3 directions to produce a confluent growth, by sterile swab soaked in the bacterial suspension. Sorbent paper disks 6.0 mm diameter were placed on each plate and soaked with 10 μl of each oil. Disks soaked with […] pure DMSO were used as negative control. The plates were incubated at 37° C. for 24 hours in anaerobiosis (anaerogen gaspack, OXOID SpA, Milan, Italy). The experiment was carried out in duplicate.

Assay [8] has as its system L. acidophilus strain La-14. The experiment in a line: Microdilution vs L. acidophilus. In kind it is cell-based, Lactobacillus acidophilus. The note with it: for MIC vs L. acidophilus: MRS broth, 37° C. 48 hours, anaerobiosis; for MIC vs L. acidophilus relative to the observed maximum MIC vs Candida spp: maximum MIC in 2 strains out of 18 only. The protocol: The antibacterial activity of […] eugenol vs L. acidophilus was studied by using the disk diffusion method (reading scheme as reported in FIG. 1) and the microdilution method (reading scheme as reported in FIG. 2). A L. acidophilus strain named La-14 (Danisco SpA, Milan, Italy) was tested. The essential oils (80% oil, 20% DMSO) were dissolved in MRS broth up to a concentration of 8% v/v (so obtaining a final concentration of 4% v/v). In a 96-well microtiter plate, 1⁄2 serial dilutions of the oils were carried out (volume: 100 μl. […] Each well was then injected with 100 μl of the cell suspension. The microtiter plates were incubated at 37° C. for 48 hours in anaerobiosis. MIC was determined as the concentration of the oils in the first well which is not cloudy. The experiment was carried out in duplicate.

Structures are written as SMILES. Bounds are passed on as bounds.

For the compound `C=CCc1ccc(O)c(OC)c1` [Eugenol, eugenol], in the assay with Candida spp. [1], the “inhibition rings diameter, average (including 6.0 mm of the disk)” value was 35.2 mm; the “inhibition rings diameter, range (including 6.0 mm of the disk)” value is 30.5-41 mm; the “inhibition of the tested Candida strains (words)” value (“inhibition … (words)” for short) is reported as “inhibited the growth of all tested Candida strains”; the “inhibition rings compared with those caused by amphotericin B (10 μg)” value is “notably greater”. Besides, the “% inhibited strains” value with Candida spp. [1] was 100% (18/18). The “Diameters of the inhibition rings (including 6.0 mm of the disk)” value (“Diameters of the inhibition rings” for short) in the assay on C. glabrata [2] (C. glabrata 1) is given as 35.0 mm. In addition, the “Diameters of the inhibition rings” value with C. glabrata [2] (C. glabrata 2) is given as 30.5 mm. For the same compound, the “Diameters of the inhibition rings” value with C. lusitaniae [3] is 43.0 mm. In the assay with Candida spp. [4], the MFC average turned out to be 0.067 % v/v and the MIC average stood at 0.043 % v/v. In the assay on C. glabrata [5] (C. glabrata 1), this compound yielded an MFC of 0.032 % v/v and an MIC of 0.032 % v/v. In the assay on C. glabrata [5] (C. glabrata 2), this compound had an MFC of 0.125 % v/v and an MIC of 0.125 % v/v. In the assay on C. lusitaniae [6], the MFC stood at 0.064 % v/v and the MIC is reported as 0.032 % v/v. Also, the inhibition ring diameter entry in assay [7] is “did not produced any inhibition ring”. Moreover, in assay [8], the “MIC vs L. acidophilus relative to the average MIC vs Candida spp” value is “about 6 fold”, the “MIC vs L. acidophilus” value is 0.25 % v/v and the “MIC vs L. acidophilus relative to the observed maximum MIC vs Candida spp” value is “double”.

In the case of `O=CC=Cc1ccccc1` [Cinnamaldheyde, cinnamaldehyde], in the assay on Candida spp. [1], the “inhibition rings diameter, average (including 6.0 mm of the disk)” value amounted to 69 mm; the “inhibition rings diameter, range (including 6.0 mm of the disk)” value is 55-75 mm; the “inhibition … (words)” value is listed as “inhibited all tested strains”; the “inhibition rings compared with those caused by amphotericin B (10 μg)” value is “notably greater”. Also, in the assay on Candida spp. [1], the “% inhibited strains” value is given as 100% (18/18). In the assay on Candida spp. [1] (listed as cinnamaldheyde), the “inhibition … (words)” value is reported as “inhibited the growth of all tested Candida strains”. In the assay with C. glabrata [2] (C. glabrata 1), the “Diameters of the inhibition rings” value is on record as 55.0 mm. In addition, the “Diameters of the inhibition rings” value with C. glabrata [2] (C. glabrata 2) was 55.0 mm. The “Diameters of the inhibition rings” value with C. lusitaniae [3] turned out to be 75.0 mm. In the assay with Candida spp. [4], this compound gave an MFC average of 0.01 % v/v and an MIC average of 0.0048 % v/v. Also, in the assay with C. glabrata [5] (C. glabrata 1), the MFC stood at 0.008 % v/v and the MIC is 0.004 % v/v. In the assay on C. glabrata [5] (C. glabrata 2), this compound had an MFC of 0.016 % v/v and an MIC of 0.016 % v/v. In addition, in the assay with C. lusitaniae [6], the MFC is reported as not above 0.002 % v/v and the MIC is not above 0.002 % v/v. This compound returned an inhibition ring diameter in assay [7] of 10 mm. In addition, in assay [8], the “MIC vs L. acidophilus relative to the average MIC vs Candida spp” value is reported as “about 6.7 fold”, the “MIC vs L. acidophilus” value was found to be 0.032 % v/v and the “MIC vs L. acidophilus relative to the observed maximum MIC vs Candida spp” value was “double”.
